The target in data set [1] is T1, EGFR-TK (Homo sapiens, UniProt P00533).
T1 construct: As a source of EGFR-TK, A431 human epidermoid carcinoma cell lysate was used; endogenous in cells; host or cells: A431 human epidermoid carcinoma cells (Triton X-100 lysate, EGFR captured by monoclonal antibody m108)
Nature of the data set: EGFR-TK autophosphorylation inhibition (ELISA assay). Format: biochemical. How it is done: Autophosphorylation Inhibition Experiments:
EGFR-TK source: As a source of EGFR-TK, A431 human epidermoid carcinoma cell lysate was used. A431 cells were grown in DMEM containing 10% fetal calf serum and antibiotics penicillin and streptomycin). After several days, the cells were removed from the flasks by incubation at 37° C. with PBS/i mM EDTA buffer for 1 hour. […] Cell lysate was obtained with a further centrifugation (10,000 rpm×10 minutes at 4° C.), and the supernatant was collected and frozen at -70° C. in aliquots.
ELISA assay: EGFR-TK autophosphorylation IC50 values were obtained by means an ELISA assay. All the following incubations were performed at room temperature and with constant shaking. After each step the plate was washed with water (5×) and TBST buffer (1×). The final volume for each well was 150 μl. A Coming 96 well ELISA plate was coated with monoclonal anti EGFR antibody m108 (Sugen Inc.) diluted in PBS (pH 8.2), and kept overnight at 4° C.
After removing the unbound m108, the plate was washed and PBS containing 5% milk (1% fat) was added for the blocking (25 minutes). One aliquot of A431 cell lysate was thawed and added to the plate.
After 25 minutes, seven different concentrations of each inhibitor were added, and for each case one well was left as a control. All inhibitors were diluted in TBS/DMSO and the final concentration of DMSO was 0.05% in each well (including the controls).
After 25 minutes, and without washing the plate, ATP/MnCl2 solution was added in each well. The final concentration was 3 μM ATP/5 mM MnCl2. In this step the temperature was kept at 26° C. and the plate was under constant shaking. The incubation with ATP/MnCl2 was for 5 minutes.
Then, to stop the phosphorylation reaction, EDTA was added (pH 8, final concentration in each well 20 mM) and after 1 minute all the plate was washed.
Afterward, polyclonal anti-phosphotyrosine serum (Sugen, Inc.) was added (dilution of antibody in TBST containing 5% milk). The incubation was for 45 minutes.
For the calorimetric detection of phosphotyrosine in EGFR-TK, TAGO anti-rabbit peroxidase conjugate antibody (Sugen, Inc.) was added in TBST/5% milk solution (45 minutes).
After washing, the colorimetric reaction was performed by adding ABTS/H2 O2 in citrate-phosphate buffer.
The analysis of the data was performed with "Regression" software.
Since the exact concentrations of m108 in the stock solution and EGFR-TK in the cell lysate were unknown, an experiment was performed to determine the optimal dilution of m108 stock and lysate. Stock m108 (approx. 0.2-0.5 μg/μl) was diluted 1:400, 1:600, 1:800 and 1:1000 with PBS, while A431 cell lysate was diluted 1:2, 1:4, 1:6, 1:8, and 1:10.
(In general: In an ELISA, binding on a coated surface is turned into a signal by an enzyme label.)

The conditions of data set [2]: cited from earlier work.
Setting [3] is: average ± SEM, A431 cell lysate, 3 μM ATP/5 mM MnCl2, Table 1, read-out: Autophosphorylation IC50.
The mark [4] stands for this setting: read-out: IC50 toward epidermal growth factor receptor tyrosine kinase activity (autophosphorylation).

Molecules are shown by their SMILES. “And” between values parts separate entries of the source, which are not always exact repeats. Identical values can stand only once. “Also recorded” adds a separate entry of the source. Like-named read-outs stand apart in the source and are kept apart here.

T1 sequence (P00533 25-1210): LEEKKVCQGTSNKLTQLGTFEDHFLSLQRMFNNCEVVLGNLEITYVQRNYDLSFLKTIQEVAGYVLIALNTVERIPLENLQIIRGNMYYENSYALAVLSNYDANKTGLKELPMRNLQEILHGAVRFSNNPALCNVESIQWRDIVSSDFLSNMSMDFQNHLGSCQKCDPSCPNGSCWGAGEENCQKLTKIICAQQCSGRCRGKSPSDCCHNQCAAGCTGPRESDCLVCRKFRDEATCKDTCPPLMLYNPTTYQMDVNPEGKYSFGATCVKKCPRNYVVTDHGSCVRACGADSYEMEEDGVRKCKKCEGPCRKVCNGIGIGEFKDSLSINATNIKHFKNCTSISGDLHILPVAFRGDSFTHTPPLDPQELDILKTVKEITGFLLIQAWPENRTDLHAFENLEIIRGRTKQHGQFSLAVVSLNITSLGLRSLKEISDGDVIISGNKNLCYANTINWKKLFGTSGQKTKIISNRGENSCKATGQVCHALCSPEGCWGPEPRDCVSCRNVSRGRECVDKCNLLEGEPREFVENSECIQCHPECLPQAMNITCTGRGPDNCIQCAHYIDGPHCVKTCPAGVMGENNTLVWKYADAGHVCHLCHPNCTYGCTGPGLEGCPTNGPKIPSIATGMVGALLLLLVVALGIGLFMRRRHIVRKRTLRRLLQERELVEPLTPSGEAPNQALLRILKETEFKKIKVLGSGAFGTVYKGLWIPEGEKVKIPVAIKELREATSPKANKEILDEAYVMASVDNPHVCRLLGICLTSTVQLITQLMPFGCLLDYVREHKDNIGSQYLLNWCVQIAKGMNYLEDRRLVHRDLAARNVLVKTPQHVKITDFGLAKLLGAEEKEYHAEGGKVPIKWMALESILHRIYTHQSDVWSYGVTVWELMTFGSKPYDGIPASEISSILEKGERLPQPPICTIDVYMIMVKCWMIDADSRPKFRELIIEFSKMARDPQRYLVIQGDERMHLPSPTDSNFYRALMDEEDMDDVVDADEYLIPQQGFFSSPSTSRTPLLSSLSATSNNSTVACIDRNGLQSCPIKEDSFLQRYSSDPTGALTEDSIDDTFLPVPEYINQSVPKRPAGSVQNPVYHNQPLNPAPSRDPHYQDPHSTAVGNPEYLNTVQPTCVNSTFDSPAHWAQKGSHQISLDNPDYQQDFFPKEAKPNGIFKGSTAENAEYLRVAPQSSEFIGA

In general, IC50 refers to the concentration needed to halve the response being measured. Consider `COc1cc2ncnc(Nc3ccc(F)cc3)c2cc1OC` [Compound 1, 4-[(4-Fluorophenyl)amino]-6,7-dimethoxyquinazoline], for which the IC50 in data set [1] (setting [3]) was 76.1 ± 3.2 nM; in data set [1] (setting [4]) it was 76 nM and 76.1 nM.

Turning to `COc1cc2ncnc(Nc3cc(F)cc(C(F)(F)F)c3)c2cc1OC` [Compound 3, ^4-[(3-Fluoro-5-trifluoromethylphenyl)amino]-6,7-dimethoxyquinazoline], the IC50 in data set [1] (setting [3]) was found to be 116 ± 14 nM; in data set [1] (setting [4]), 116 nM.

Regarding `COc1cc2ncnc(Nc3cc(Cl)c(Cl)cc3F)c2cc1OC` [Compound 4, 4-[(3,4-Dichloro-6-fluorophenyl)amino]-6,7-dimethoxyquinazoline], in data set [1], the “EGFR-TK autophosphorylation inhibitor potency” value was “most potent inhibitor; also recorded: very potent EGFR-TK autophosphorylation inhibitor”. The IC50 in data set [1] (setting [3]) was 0.22 ± 0.18 nM; in data set [1] (setting [4]), 0.22 nM.

For `COc1cc2ncnc(Nc3cccc(Br)c3)c2cc1OC` [PD 153035], the “plasma level after approximately 3 hours, % of the maximum” value in data set [2] (of maximum, after approximately 3 hours) is listed as 2%. Also, the metabolism entry in data set [2] (two identified as 6- and 7-monodemethylated derivatives) was “metabolism to four compounds”.

These data come from patent US6126917A, “Epidermal growth factor receptor binding compounds for positron emission tomography” (Hadasit Medical Research Services and Development Ltd., priority 1999, dated 2000).
